The values that follow come from ChEMBL document CHEMBL4002587 (Eur J Med Chem, 2017).

In one series the target is Prothrombin (Homo sapiens, UniProt P00734). The series can be described thus: Inhibition of human thrombin preincubated for 10 mins followed by Ac-FVR-AMC substrate addition measured every 20s for 10 mins by fluorescence assay.
The species named for another series is Rattus norvegicus. The series can be described thus: Anti-thrombotic activity in Sprague-Dawley rat assessed as inhibition of arteriovenous thrombosis weight at 0.5 mg/ml relative to control. Format: functional.
Series [1] in a line: Oral bioavailability in human at 10 to 400 mg administered as single dose measured after 24 hrs. Format: ADME, organism-based. Particulars: in vivo.

pIC50: −log10 of the molar value.

As to `Cc1ccnc(N(CCC(=O)O)C(=O)c2ccc3c(c2)nc(CNc2ccc(C(=N)N)cc2F)n3C)c1`, at Prothrombin, the pIC50 was 8.48.

In turn, `Cn1c(CNc2ccc(C(=N)N)cc2F)nc2cc(C(=O)N(CCC(=O)O)c3ccc(F)c(F)c3)ccc21` gave a pIC50 on Prothrombin of 7.84.

Compound `Cc1cccc(N(CCC(=O)O)C(=O)c2ccc3c(c2)nc(CNc2ccc(C(=N)N)cc2F)n3C)c1` gave a negative-log IC50 (pIC50) at Prothrombin of 8.65.

As for `Cc1ccc(C)c(N(CCC(=O)O)C(=O)c2ccc3c(c2)nc(CNc2ccc(C(=N)N)cc2F)n3C)c1`, the pIC50 on Prothrombin was 8.47. The pIC50 values of the last two compounds are within 0.2 log units of each other.

For the compound `Cc1cc(C)cc(N(CCC(=O)O)C(=O)c2ccc3c(c2)nc(CNc2ccc(C(=N)N)cc2F)n3C)c1`, the pIC50 against Prothrombin is 8.43.

At Prothrombin, `Cn1c(CNc2ccc(C(=N)N)cc2F)nc2cc(C(=O)N(CCC(=O)O)c3ccc(F)cc3F)ccc21` gave a negative logarithm of the IC50 (pIC50) of 9.08.

As to `Cc1cccc(C)c1N(CCC(=O)O)C(=O)c1ccc2c(c1)nc(CNc1ccc(C(=N)N)cc1F)n2C`, the negative logarithm of the IC50 (pIC50) against Prothrombin is 7.89.

Compound `Cn1c(CNc2ccc(C(=N)N)cc2F)nc2cc(C(=O)N(CCC(=O)O)c3cc(F)cc(F)c3)ccc21` gave a pIC50 against Prothrombin of 8.93.

`Cc1cccc(N(CCC(=O)O)C(=O)c2ccc3c(c2)nc(CNc2ccc(C(=N)N)cc2F)n3C)c1C` gave a negative logarithm of the IC50 (pIC50) against Prothrombin of 8.81. Besides, the “inhibition (INH)” value in the series listed under Rattus norvegicus is listed as 84.24%.

The compound `Cc1cccc(N(CCC(=O)O)C(=O)c2ccc3c(c2)nc(CNc2ccc(C(=N)N)cc2F)n3C)n1` showed a negative-log IC50 (pIC50) on Prothrombin of 8.85. In addition, the “inhibition (INH)” value in the series filed under Rattus norvegicus is reported as 84.57%.

`Cc1cc(N(CCC(=O)O)C(=O)c2ccc3c(c2)nc(CNc2ccc(C(=N)N)cc2F)n3C)ccc1F` had a pIC50 on Prothrombin of 8.49.

With `Cn1c(CNc2ccc(C(=N)N)cc2)nc2cc(C(=O)N(CCC(=O)O)c3ccccn3)ccc21` [DABIGATRAN], the “inhibition (INH)” value in the series filed under Rattus norvegicus came out at 85.07%. In series [1], this compound displayed a bioavailability of 6.5%.

Usually pIC50 stands for −log10 of the IC50, conventionally taken in molar units. High values mean a small IC50, low ones a large IC50. As a reminder, the bioavailability is the share of a dose that reaches the circulation, judged against a reference dose that is usually intravenous. Read a high bioavailability as much systemic uptake.
